# Source: patent publication US11324757B2, “Pharmaceutical composition for treatment of increased intraocular pressure” (NOVALIQ GMBH, priority 2010, dated 2022)
# “And” between values parts separate entries of the source, which are not always exact repeats. Equal values may be shown once. Read-outs that look alike come from different tables or passages of the source.
# How the values were obtained:
# Refractive index = format: physicochemical; details: selected SFA's, neat
# [1] = descriptive term; cited from earlier work
# rabbit eyes (cornea) [2] = test system: rabbit eyes (cornea)
# Experimental: (§2) The physiological tolerability of this solution was evaluated in an ex-vivo eye irritation test (EVEIT) using rabbit eyes taken from freshly sacrificed animals. The eyes were fastened in chambers coupled micropump systems which continuously supplied the eyes with cultivation medium (Minimal Essential Medium, MEM T031-OS) without fetal calf serum. The vitality of the eyes was monitored by regularly measuring the concentration of lactate and glucose in the chamber eluate. The corneal surface of the eyes was damaged by abrasion, using a dental ceramic abrasive (638XF, Meisinger). For each eye, four lesions of 3.0 to 4.5 mm^2 were prepared.
# (§3) To evaluate the effect of F4H5 and F4H5 with 1 wt.-% ethanol on the cornea, an amount of approx. 0.25 to 0.50 μl of the respective test substance was dropped onto the centre of a cornea once every hour over a period of 12 hours, followed by a 12 hour resting period in which the cornea was submersed in culture medium to simulate a closed lid during a night phase. In addition, an aqueous solution of hyaluronic acid (0.1 wt.-%) was used as reference (hyaluronic acid is know to enhance the restoration of the corneal surface after damage), culture medium was used as control, and aqueous benzalkonium chloride solution (0.01 wt.-%) was used as negative control. Each test was performed over a period of 3 days. The effects were observed by optical coherence tomography (OCT), by digitally determining the dimensions of the lesions after staining with fluorescein, and finally by a histological evaluation of the corneal epithelium and endothelium at the end of each experiment.
# (§4) Each of the two vehicles was tested in two separate runs.
# [3] = test system: P. aeruginosa (ATCC 9027); test: Antimicrobial preservative effectiveness test (USP 32 <51>); format: cell-based, Pseudomonas aeruginosa; details: for cfu/mL 0 h / cfu/mL 24 h / cfu/mL 48 h: approx. 22.5° C.
# Experimental: (§1) An antimicrobial preservative effectiveness test in analogy to that of USP 32 <51> was carried out. Sample vials comprising […] or F6H8, respectively, were inoculated with Escherichia coli, Pseudomonas aeruginosa, Staphylococcus aureus, Candida albicans and Aspergillus niger and incubated at approx. 22.5° C.
# E. coli (ATCC 8739) = test: as above; format: cell-based, Escherichia coli; details: for cfu/mL 0 h / cfu/mL 24 h / cfu/mL 48 h: approx. 22.5° C.
# Experimental: as §1
# S. aureus (ATCC 6538) = test: as above; format: cell-based, Staphylococcus aureus; details: for cfu/mL 0 h / cfu/mL 24 h / cfu/mL 48 h: approx. 22.5° C.
# Experimental: as §1
# C. albicans (ATCC 10231) = test: as above; format: cell-based, Candida albicans; details: for cfu/mL 0 h / cfu/mL 24 h / cfu/mL 48 h: approx. 22.5° C.
# Experimental: as §1
# A. niger (ATCC 16404) = test: as above; format: cell-based, Aspergillus niger; details: for cfu/mL 0 h / cfu/mL 24 h / cfu/mL 48 h / cfu/mL 6 d: approx. 22.5° C.
# Experimental: as §1
# [4] = Droplet size (weight and volume) from three droppers; format: physicochemical; details: 25° C.; for droplet volume, Glass pipette / droplet weight, Glass pipette: 2 mL glass Pasteur pipette; for droplet volume, Glass pipette / droplet volume, Injection needle / droplet volume, Eye dropper: calculated from weight; for droplet weight, Glass pipette / droplet weight, Injection needle / droplet weight, Eye dropper: mean ± SD of 10; for droplet volume, Injection needle / droplet weight, Injection needle: 20 G injection needle; for droplet volume, Eye dropper / droplet weight, Eye dropper: dropper of commercial eye drops (Hylo-Vision)
# Experimental: The droplet size of selected SFA's in terms of weight and volume of droplets from three droppers was determined and compared to that of purified water. The devices used for dispensing the droplets were (a) a 2 mL Pasteur pipette (wall thickness 0.53 mm; external tip diameter: 1.50 mm; length: 150 mm) made of glass, (b) a 20 G (0.9 mm×50 mm) injection needle, and (c) a dropper from a commercial eye drops product (Hylo-Vision). The droplet weights were measured at 25° C. using a laboratory balance; the volumes were calculated. Each test was performed 10 times.
# [5] = Contact angle (wetting) on compressed drug tablets
# rabbit eyes (cornea) [6] = test: Ex-vivo eye irritation test (EVEIT), corneal lesions by abrasion
# Experimental: as §2, §3, §4
# [7] = typical values for comparison; water at room temperature (RT); cited from earlier work
# [8] = on fenofibrate tablet (150 mg, 15-20 kN, 13 mm)
# [9] = on trospium chloride tablet (150 mg, 15-20 kN, 13 mm)
compound,measurement,setting,value
CCCCCCCC(F)(F)C(F)(F)C(F)(F)C(F)(F)C(F)(F)C(F)(F)F [Example F6H7],Refractive index,Refractive index,"1,3366"
CCCCCCCC(=O)CC[C@@H]1[C@@H](C/C=C\CCCC(=O)O)[C@@H](O)C[C@H]1O [unoprostone],solubility in water,[1],practically insoluble
CCCCC(F)(F)C(F)(F)C(F)(F)C(F)(F)F [Example F4H4],Refractive index,Refractive index,"1,308"
"CC(C)OC(=O)CCCC=CCC1C(O)CC(O)C1C=CC(O)COc1cccc(C(F)(F)F)c1 (centres unmarked) [travoprost, propan-2-yl 7-[3,5-dihydroxy-2-[3-hydroxy-4-[3-(trifluoromethyl)phenoxy]-but-1-enyl]-cyclopentyl]hept-5-enoate]",solubility in water,[1],practically insoluble
CCCCCCCCCC(F)(F)C(F)(F)C(F)(F)C(F)(F)C(F)(F)C(F)(F)F [Example F6H9],Refractive index,Refractive index,"1,3494"
CCCCCCCCC(F)(F)C(F)(F)C(F)(F)C(F)(F)F [Example F4H8],Refractive index,Refractive index,"1,348"
"benzalkonium chloride [BAC, reference compound]",Final size of corneal lesions,rabbit eyes (cornea) [2],>60 mm^2
same,Initial size of corneal lesions,rabbit eyes (cornea) [2],16.05 mm^2
same,healing of corneal lesions,rabbit eyes (cornea) [2],rapid growth of the lesions
same,morphological and histological evaluation of cornea,rabbit eyes (cornea) [2],complete disintegration of the corneal epithelium
CCCCC(F)(F)C(F)(F)C(F)(F)C(F)(F)C(F)(F)C(F)(F)F [Example F6H4],Refractive index,Refractive index,"1,306"
CCCCCC(F)(F)C(F)(F)C(F)(F)C(F)(F)F [Example F4H5],morphological and histological evaluation of cornea,rabbit eyes (cornea) [2],"entirely clear at the end of the tests, with healthy and smooth surface morphology"
same,penetration into the cornea (OCT imaging),rabbit eyes (cornea) [2],no indication of penetration
same,tolerability by the eye,rabbit eyes (cornea) [2],better tolerated than culture medium
same,cfu/mL 0 h,[3],1 600 cfu/mL
same,Change in log steps 24 h,[3],≤−1.2 log steps
same,cfu/mL 24 h,[3],<100 cfu/mL
same,Change in log steps 48 h,[3],≤−1.2 log steps
same,cfu/mL 48 h,[3],<100 cfu/mL
same,cfu/mL 0 h,E. coli (ATCC 8739),1 600 cfu/mL
same,Change in log steps 24 h,E. coli (ATCC 8739),≤−1.2 log steps
same,cfu/mL 24 h,E. coli (ATCC 8739),<100 cfu/mL
same,Change in log steps 48 h,E. coli (ATCC 8739),≤−1.2 log steps
same,cfu/mL 48 h,E. coli (ATCC 8739),<100 cfu/mL
same,Refractive index,Refractive index,"1,3204"
same,cfu/mL 0 h,S. aureus (ATCC 6538),2 900 cfu/mL
same,Change in log steps 24 h,S. aureus (ATCC 6538),≤−1.4 log steps
same,cfu/mL 24 h,S. aureus (ATCC 6538),<100 cfu/mL
same,Change in log steps 48 h,S. aureus (ATCC 6538),≤−1.4 log steps
same,cfu/mL 48 h,S. aureus (ATCC 6538),<100 cfu/mL
same,cfu/mL 0 h,C. albicans (ATCC 10231),1 500 cfu/mL
same,Change in log steps 24 h,C. albicans (ATCC 10231),≤−1.2 log steps
same,cfu/mL 24 h,C. albicans (ATCC 10231),<100 cfu/mL
same,Change in log steps 48 h,C. albicans (ATCC 10231),≤−1.1 log steps
same,cfu/mL 48 h,C. albicans (ATCC 10231),<100 cfu/mL
same,cfu/mL 0 h,A. niger (ATCC 16404),3 000 cfu/mL
same,Change in log steps 24 h,A. niger (ATCC 16404),≤−1.4 log steps
same,cfu/mL 24 h,A. niger (ATCC 16404),<100 cfu/mL
same,Change in log steps 48 h,A. niger (ATCC 16404),≤−1.2 log steps
same,cfu/mL 48 h,A. niger (ATCC 16404),<100 cfu/mL
same,Change in log steps 6 d,A. niger (ATCC 16404),≤−1.2 log steps
same,cfu/mL 6 d,A. niger (ATCC 16404),<100 cfu/mL
same,"droplet volume, Glass pipette",[4],4.7 ± 0.3 µL
same,"droplet weight, Glass pipette",[4],6.0 ± 0.4 mg
same,"droplet volume, Injection needle",[4],2.0 ± 0.3 µL
same,"droplet weight, Injection needle",[4],2.6 ± 0.4 mg
same,"droplet volume, Eye dropper",[4],9.6 ± 0.2 µL
same,"droplet weight, Eye dropper",[4],12.4 ± 0.2 mg
same,contact angle,[5]; [8],not measurable
same,contact angle,[5]; [9],not measurable
CCCCCCC(F)(F)C(F)(F)C(F)(F)C(F)(F)F [Example F4H6],Refractive index,Refractive index,"1,334"
hyaluronic acid [HA],morphological and histological evaluation of cornea,rabbit eyes (cornea) [6]; at end of test,"entirely clear at the end of the tests, with healthy and smooth surface morphology"
same,Initial size of corneal lesions,"rabbit eyes (cornea) [6]; before the test, separate runs",13.22 mm^2 and 16.03 mm^2 and 14.87 mm^2
same,healing of corneal lesions,"rabbit eyes (cornea) [6]; ex-vivo rabbit eye, 3 days, fluorescein staining",Substantial healing
same,Change of lesion size,"rabbit eyes (cornea) [6]; final vs initial size, 3 days, separate runs",−97.3% and −98.5% and −100%
CCCCCCCCC(F)(F)C(F)(F)C(F)(F)C(F)(F)C(F)(F)C(F)(F)F [Example F6H8],Change of lesion size,rabbit eyes (cornea) [2],−100.0%
same,Final size of corneal lesions,rabbit eyes (cornea) [2],0.00 mm^2
same,healing of corneal lesions,rabbit eyes (cornea) [2],all lesions healed fully
same,morphological and histological evaluation of cornea,rabbit eyes (cornea) [2],dense stromata with very few clefts and well-arranged keratocytes
same,cfu/mL 0 h,[3],1 600 cfu/mL
same,Change in log steps 24 h,[3],≤−1.2 log steps
same,cfu/mL 24 h,[3],<100 cfu/mL
same,Change in log steps 48 h,[3],≤−1.2 log steps
same,cfu/mL 48 h,[3],<100 cfu/mL
same,cfu/mL 0 h,E. coli (ATCC 8739),1 600 cfu/mL
same,Change in log steps 24 h,E. coli (ATCC 8739),≤−1.2 log steps
same,cfu/mL 24 h,E. coli (ATCC 8739),<100 cfu/mL
same,Change in log steps 48 h,E. coli (ATCC 8739),≤−1.2 log steps
same,cfu/mL 48 h,E. coli (ATCC 8739),<100 cfu/mL
same,Refractive index,Refractive index,"1,3432"
same,cfu/mL 0 h,S. aureus (ATCC 6538),2 900 cfu/mL
same,Change in log steps 24 h,S. aureus (ATCC 6538),≤−1.4 log steps
same,cfu/mL 24 h,S. aureus (ATCC 6538),<100 cfu/mL
same,Change in log steps 48 h,S. aureus (ATCC 6538),≤−1.4 log steps
same,cfu/mL 48 h,S. aureus (ATCC 6538),<100 cfu/mL
same,cfu/mL 0 h,C. albicans (ATCC 10231),1 500 cfu/mL
same,Change in log steps 24 h,C. albicans (ATCC 10231),≤−1.2 log steps
same,cfu/mL 24 h,C. albicans (ATCC 10231),<100 cfu/mL
same,Change in log steps 48 h,C. albicans (ATCC 10231),≤−1.1 log steps
same,cfu/mL 48 h,C. albicans (ATCC 10231),<100 cfu/mL
same,cfu/mL 0 h,A. niger (ATCC 16404),1 500 cfu/mL
same,Change in log steps 24 h,A. niger (ATCC 16404),≤−1.2 log steps
same,cfu/mL 24 h,A. niger (ATCC 16404),<100 cfu/mL
same,Change in log steps 48 h,A. niger (ATCC 16404),≤−1.2 log steps
same,cfu/mL 48 h,A. niger (ATCC 16404),<100 cfu/mL
same,Change in log steps 6 d,A. niger (ATCC 16404),≤−1.2 log steps
same,cfu/mL 6 d,A. niger (ATCC 16404),<100 cfu/mL
same,"droplet volume, Glass pipette",[4],5.0 ± 0.4 µL
same,"droplet weight, Glass pipette",[4],6.6 ± 0.6 mg
same,"droplet volume, Injection needle",[4],2.5 ± 0.1 µL
same,"droplet weight, Injection needle",[4],3.4 ± 0.2 mg
same,"droplet volume, Eye dropper",[4],10.3 ± 0.3 µL
same,"droplet weight, Eye dropper",[4],13.7 ± 0.4 mg
same,contact angle,[5]; [8],not measurable
same,contact angle,[5]; [9],not measurable
CCCCCCC(F)(F)C(F)(F)C(F)(F)C(F)(F)C(F)(F)C(F)(F)F [Example F6H6],Refractive index,Refractive index,"1,3224"
"O [Water, reference compound]",Refractive index,[7],1.333
same,"droplet volume, Glass pipette",[4],31.3 ± 1.4 µL
same,"droplet weight, Glass pipette",[4],31.2 ± 1.4 mg
same,"droplet volume, Injection needle",[4],11.1 ± 0.9 µL
same,"droplet weight, Injection needle",[4],11.0 ± 0.9 mg
same,"droplet volume, Eye dropper",[4],36.1 ± 2.2 µL
same,"droplet weight, Eye dropper",[4],36.0 ± 2.2 mg
same,contact angle,[5]; [8],92.5 °
CCC(F)(F)C(F)(F)C(F)(F)C(F)(F)C(F)(F)C(F)(F)F [Example F6H2],Refractive index,Refractive index,"1,295"
"CCNC(=O)CCC/C=C\C[C@@H]1[C@@H](/C=C/[C@@H](O)CCc2ccccc2)[C@H](O)C[C@@H]1O [Bimatoprost, (Z)-7-[(1R,2R,3R,5S)-3,5-Dihydroxy-2-[(1E,3S)-3-hydroxy-5-phenyl-1-pentenyl]cyclopentyl]-N-ethyl-5-heptenamide]",solubility in water,[1],slightly soluble
CCCCCCCC(F)(F)C(F)(F)C(F)(F)C(F)(F)F [Example F4H7],Refractive index,Refractive index,"1,3357"
